Columns and labels:
Test in all cases: relative viability (nuclei count vs DMSO), 5 days (fraction); higher = more cells survive
Dovitinib + Bortezomib = compound: CN1CCN(c2ccc3nc(-c4c(N)c5c(F)cccc5[nH]c4=O)[nH]c3c2)CC1 [Dovitinib] + CC(C)C[C@H](NC(=O)[C@H](Cc1ccccc1)NC(=O)c1cnccn1)B(O)O [Bortezomib] (partner 0.002 µM)
How it was run: (§1)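 Nuclei were stained with Hoechst during a one-step fixation (final 0.05% Triton X-100, 1% formaldehyde, 1 ug/ml Hoechst) carried out 5 days after dosing, then counted on 4× images. The cells, lung cancer lines in 1536-well plates, had been dosed by pin tool the day after seeding with one drug alone or a fixed anchor-drug dose plus five library-drug doses (not always all listed) in √10 steps. Relative viability is the nuclei count in treated wells divided by that in vehicle wells, and each value is the median of duplicate plates.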

Dovitinib + Dasatinib = compound: CN1CCN(c2ccc3nc(-c4c(N)c5c(F)cccc5[nH]c4=O)[nH]c3c2)CC1 [Dovitinib] + Cc1nc(Nc2ncc(C(=O)Nc3c(C)cccc3Cl)s2)cc(N2CCN(CCO)CC2)n1 [Dasatinib] (partner 0.075 µM)
How it was run: as §1

Dovitinib + Luminespib = compound: CN1CCN(c2ccc3nc(-c4c(N)c5c(F)cccc5[nH]c4=O)[nH]c3c2)CC1 [Dovitinib] + CCNC(=O)c1noc(-c2cc(C(C)C)c(O)cc2O)c1-c1ccc(CN2CCOCC2)cc1 [Luminespib] (partner 0.01 µM)
How it was run: as §1

Dovitinib + Palbociclib = compound: CN1CCN(c2ccc3nc(-c4c(N)c5c(F)cccc5[nH]c4=O)[nH]c3c2)CC1 [Dovitinib] + CC(=O)c1c(C)c2cnc(Nc3ccc(N4CCNCC4)cn3)nc2n(C2CCCC2)c1=O [Palbociclib] (partner 0.5 µM)
How it was run: as §1

Cell Line | relative viability (Dovitinib + Bortezomib; first compound 0.02 µM) | relative viability (Dovitinib + Bortezomib; first compound 0.06325 µM) | relative viability (Dovitinib + Bortezomib; first compound 0.2 µM) | relative viability (Dovitinib + Bortezomib; first compound 0.6325 µM) | relative viability (Dovitinib + Bortezomib; first compound 2 µM) | relative viability (Dovitinib + Dasatinib; first compound 0.02 µM) | relative viability (Dovitinib + Dasatinib; first compound 0.06325 µM) | relative viability (Dovitinib + Dasatinib; first compound 0.2 µM) | relative viability (Dovitinib + Dasatinib; first compound 0.6325 µM) | relative viability (Dovitinib + Dasatinib; first compound 2 µM) | relative viability (Dovitinib + Luminespib; first compound 0.02 µM) | relative viability (Dovitinib + Luminespib; first compound 0.06325 µM) | relative viability (Dovitinib + Luminespib; first compound 0.2 µM) | relative viability (Dovitinib + Luminespib; first compound 0.6325 µM) | relative viability (Dovitinib + Luminespib; first compound 2 µM) | relative viability (Dovitinib + Palbociclib; first compound 0.02 µM) | relative viability (Dovitinib + Palbociclib; first compound 0.06325 µM) | relative viability (Dovitinib + Palbociclib; first compound 0.2 µM) | relative viability (Dovitinib + Palbociclib; first compound 0.6325 µM) | relative viability (Dovitinib + Palbociclib; first compound 2 µM)
HARA | 1.26 | 1.16 | 1.01 | 1.17 | 1.2 | 0.319 | 0.152 | 0.275 | 0.226 | 0.291 | 0.708 | 0.682 | 0.595 | 0.603 | 0.763 | 0.29 | 0.234 | 0.311 | 0.254 | 0.258
NCI-H2126 | 1.11 | 1.09 | 1.2 | 1.08 | 1.07 | 0.599 | 0.596 | 0.766 | 0.622 | 0.623 | 0.937 | 0.864 | 1.09 | 0.877 | 0.83 | 0.363 | 0.357 | 0.354 | 0.339 | 0.327
LXF-289 | 0.924 | 1 | 1.02 | 0.935 | 0.968 | 0.201 | 0.206 | 0.263 | 0.253 | 0.266 | 0.722 | 0.683 | 0.737 | 0.677 | 0.663 | 0.577 | 0.604 | 0.621 | 0.598 | 0.566
NCI-H460 | 1.01 | 1.2 | 1.09 | 1.11 | 1.08 | 0.407 | 0.489 | 0.555 | 0.505 | 0.476 | 0.0302 | 0.034 | 0.0441 | 0.0303 | 0.0426 | 0.147 | 0.226 | 0.159 | 0.163 | 0.142
NCI-H2009 | 0.816 | 0.926 | 0.991 | 0.974 | 1.08 | 0.261 | 0.269 | 0.336 | 0.299 | 0.354 | 0.974 | 1.11 | 0.981 | 0.973 | 1.13 | 0.203 | 0.202 | 0.291 | 0.353 | 0.244

Source: the supplement of paper PMC10307832
